From patent publication US11292759B2, “Hydroxycitric acid metal heterocyclic compounds with covalent characteristics” (GLYKON TECHNOLOGIES GROUP, LLC, priority 2018, dated 2022)

Columns and labels:
[1] = molecular target: T1, ATP citrate lyase (EC 4.1.3.8) (Homo sapiens, UniProt P53396); details: cited from earlier work
T1 sequence (P53396 1-1101): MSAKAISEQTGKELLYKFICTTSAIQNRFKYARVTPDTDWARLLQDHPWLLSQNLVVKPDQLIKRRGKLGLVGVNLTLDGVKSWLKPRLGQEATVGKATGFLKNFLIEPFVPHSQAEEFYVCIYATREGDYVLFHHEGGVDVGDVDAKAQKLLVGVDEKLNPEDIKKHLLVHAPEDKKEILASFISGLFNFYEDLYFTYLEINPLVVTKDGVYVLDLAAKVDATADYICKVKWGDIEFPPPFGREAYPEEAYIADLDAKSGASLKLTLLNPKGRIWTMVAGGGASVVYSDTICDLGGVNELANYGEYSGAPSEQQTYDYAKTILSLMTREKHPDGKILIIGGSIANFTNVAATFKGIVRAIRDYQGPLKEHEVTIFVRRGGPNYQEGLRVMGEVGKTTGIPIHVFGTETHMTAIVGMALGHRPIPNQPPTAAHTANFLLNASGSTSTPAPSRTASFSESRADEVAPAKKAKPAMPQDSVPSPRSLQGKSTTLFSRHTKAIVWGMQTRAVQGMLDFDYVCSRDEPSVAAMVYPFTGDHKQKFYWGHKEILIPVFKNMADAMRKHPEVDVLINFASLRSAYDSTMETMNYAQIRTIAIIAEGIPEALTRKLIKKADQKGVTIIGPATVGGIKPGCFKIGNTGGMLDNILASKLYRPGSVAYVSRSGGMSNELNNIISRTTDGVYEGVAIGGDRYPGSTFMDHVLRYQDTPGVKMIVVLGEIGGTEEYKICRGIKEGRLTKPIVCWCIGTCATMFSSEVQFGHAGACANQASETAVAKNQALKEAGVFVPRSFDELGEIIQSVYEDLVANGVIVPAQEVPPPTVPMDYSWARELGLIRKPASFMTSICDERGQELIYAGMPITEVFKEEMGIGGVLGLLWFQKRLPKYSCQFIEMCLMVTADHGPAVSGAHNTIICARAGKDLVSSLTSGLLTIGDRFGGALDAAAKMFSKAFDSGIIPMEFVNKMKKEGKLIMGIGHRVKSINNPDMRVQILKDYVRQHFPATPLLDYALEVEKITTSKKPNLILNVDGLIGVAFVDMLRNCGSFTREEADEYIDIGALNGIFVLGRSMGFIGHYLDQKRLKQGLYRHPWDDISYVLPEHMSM

[2] = tested on: de novo lipogenesis (DNL); experiment: De novo lipogenesis in rats (literature); assay type: in vivo; details: for a 70 kg human being
Text: Dosages of various HCA compositions found to be effective are quite large, indeed beyond the normal range for pharmaceutical products, with efficacy that is highly variable. […] A later study found a significant, yet limited effect after 7 days of a diet designed specifically to induce de novo lipogenesis in humans. (Physiol Behav. 2006 Jul. 30; 88(4-5): 371-81). See also, Nutr Metab (Lond). 2005 Sep. 13; 2:23.

[3] = tested on: de novo lipogenesis (DNL); details: obese subjects, 6 g HCA/day for 5 days; cited from earlier work
[4] = Conductivity of solutions (HACH Conductivity/TDS meter); assay type: physicochemical; details: Concentration 0.3 mmol/l in demineralized water, no additive
Text: The structure of the subject compounds (e.g., as described herein) can be deduced using a conductance meter to observe the extent of dissociate of the first and/or second metals from the compounds. In an experiment described below equimolar samples and comparative electrolyte conductance to K-acetate solution as a standard, data may be obtained which is characteristic of electrolyte binary conductants. […] The KMgHCA solution in water may have a pH 8-10 depending on the concentration. Under this condition, the heterocyclic anion formed will tend toward a stable form rather than an ionizable one.
Several experiments investigating the electrical conductivities of solutions of KMgHCA, KZnHCA and KMnHCA are performed. The equipment used is HACH Conductivity/TDS meter, P/N=4460-00.
Materials: KMgHCA.4H2O, KZnHCA.2H2O, KMnHCA.2H2O are prepared using methods described herein. KC2H3O2 and […] was obtained from Merck. H2O used was demineralized water.
General procedure: All the HCA compounds and Acetate were weighed and placed in a volumetric flask and dissolved with demineralized water to one liter solution and then they were tested the conductivity (EC).

[5] = tested on: osteoporosis and calcification; experiment: Example 13: comparison of bimetal regimes in two subjects; assay type: in vivo, human; design: key to Treatment performance: ++: very good performance; +−: good but slight complaint
Method: Subject I: a person, 40 kg (cited in Example 11, above)
Subject II: a person; 72 kg
Treatment: A. Mixture 25% KCa HCA+75% KMg HCA bimetals (100-200 mg)
Treatment B: Only KMg HCA but not KCa HCA was used.

[6] = tested on: Osteoporosis; experiment: Example 14: comparison of KCaHCA and/or KMgHCA compositions in one subject; assay type: in vivo, human; details: 200 mg doses, after switch from experiment 1 regimen
Method: • Subject: (cited as Example 12, above) • • Problem: Osteoporosis • Treatment: Materials were consumed 3 times a day after meals. • Experiment 1. Blending 150 mg KMgHCA.8H2O+50 mg KCaHCA.3H2O • A 200 mg mixture of KCaHCA (25%) and KMgHCA (75%) prepared according to the subject methods was used. The actual percentage of calcium was (40/338)×25%=2.96%. Since KCaHCA.3H2O was used the percentage of magnesium in the composition was (24/412)×75%=4.37%. Since KMgHCA.8H2O was used, the ratio Ca:Mg=0.15:0.36 in mmol. • Experiment 2. 200 mg KMgHCA.8H2O • Experiment 3.

[7] = cited from earlier work

In the case of O=C(O)CC(O)(C(=O)O)C(O)C(=O)O (single isomer, unassigned; (-)) [(−)-HCA, (−)-hydroxycitric acid], the “inhibition of ATP citrate lyase” value [1] is listed as “potent inhibitor”.
For O=C(O)CC(O)(C(=O)O)C(O)C(=O)O (stereo not drawn) [HCA, Hydroxycitric acid], the “effective dose extrapolated from rats” value [2] is given as “approximately 4.5 g/day” and the “inhibition of DNL / promotion of fatty acid oxidation” value [3] is given as “failed to inhibit DNL or to promote fatty acid oxidation”.
In the case of CC(=O)[O-].[K+] [KC2H3O2, K-acetate], the “E. C (μS/cm)” value [4] is reported as 56.06 μS/cm.
In the case of O=C([O-])CC(O)(C(=O)[O-])C(O)C(=O)[O-].[K+].[Mg+2] (stereo not drawn) [KMgHCA], the Treatment performance ([5]; Patient II (72 kg)) is reported as “+−”, the reduction of symptoms ([5]; Subject II) is reported as “partial reduction of symptoms” and the “patient's condition observed during treatment” value [6] is reported as “slight difficult to walk”.
For CC(=O)[O-].CC(=O)[O-].O.O.O.O.[Mg+2] [Mg(CH3COO)2•4H2O], the “E. C (μS/cm)” value [4] was 32.3 μS/cm.
In the case of O=C(O)CO [glycolic acid], the pKa [7] is given as “approx. 3.83”.
